Laboratory results as given in paper PMC9869995, “Discovery of benzochromene derivatives first example with dual cytotoxic activity against the resistant cancer cell MCF-7/ADR and inhibitory effect of the P-glycoprotein expression levels” (Journal of Enzyme Inhibition and Medicinal Chemistry, 2023).

What was measured:
[1] = tested on: MCF-7; assay: MTT cell viability assay, MCF-7; type: cell-based; conditions: Homo sapiens, MCF7, 24 h incubation, mean ± standard error
From the text: (§1) According to previous reports regarding the cytotoxic features of a numerous array of benzochromene scaffolds, compounds 4a − z have been elected to explore their cytotoxic ability against three tumour cell lines, including HCT-116 (colon cancer), MCF-7 (breast cancer), and HepG-2 (hepatocellular cancer), and employing the 3–(4,5-dimethylthiazol-2-yl)-2,5-diphenyl tetrazolium bromide (MTT) colorimetric assay as described in literature. Judges choice of such cell lines has been stimulated by the acknowledged antitumor performance of a substantial number of 1H-benzo[f]chromene and 4H-benzo[h]chromene molecules towards the asserted cell lines. […] Moreover, benzochromene derivatives with highly cytotoxic behaviour, 4a − d, 4g, 4i, 4k, 4n, 4q, 4 u, and 4w, are subjected to further inspection against ADR-resistant human breast cancer cells (MCF-7/ADR) and the two normal cell lines, HFL-1 and human diploid fibroblasts (WI-38). […] Also, the results are illustrated in Table 4.
(§2) The tumour cell lines MCF-7, HepG-2, and […] were obtained from the American Type Culture Collection (ATCC, Rockville, MD). The cells were grown on RPMI-1640 medium supplemented with 10% inactivated foetal calf serum and 50 µg/mL gentamycin. The cells were maintained at 37 °C in a humidified atmosphere with 5% CO2 and were subculture two to three times a week.
(§3) The cytotoxic activity was appraised, using the 3–(4,5-dimethylthiazol-2-yl)-2,5-diphenyl-tetrazolium bromide (MTT) colorimetric assay, as reported previously[57] and ELISA assay for MCF-7/ADR[75].

[2] = tested on: HCT-116; assay: MTT cell viability assay, HCT-116; type: cell-based; conditions: Homo sapiens, 24 h incubation, mean ± standard error
From the text: as §1, §3

[3] = tested on: HepG-2; assay: MTT cell viability assay, HepG-2; type: cell-based; conditions: Homo sapiens, HepG2, 24 h incubation, mean ± standard error
From the text: as §1, §2, §3

[4] = tested on: HFL-1; assay: Cytotoxicity against normal cell line HFL-1; type: cell-based; conditions: Homo sapiens, HFL1, 24 h, mean ± standard error
From the text: as §1, §3

[5] = tested on: WI-38; assay: Cytotoxicity against normal cell line WI-38; type: cell-based; conditions: Homo sapiens, 24 h, mean ± standard error
From the text: as §1, §3

[6] = tested on: MCF-7/ADR; assay: Cytotoxicity against ADR-resistant breast cancer cells; type: cell-based, human; conditions: 24 h exposure, mean ± standard error
From the text: as §1, §3

[7] = Homo sapiens, NCI/ADR-RES, 24 h

SMILES | IC50 [1] | IC50 [2] | IC50 [3] | IC50 [4] | IC50 [5] | melting point | IC50 [6, 7] | IC50 [6]
COc1ccc2ccc3c(c2c1)C(c1cc(Br)ccc1Br)C(C#N)=C(N)O3 (centres unmarked) [4r, 3-Amino-1–(2,5-dibromophenyl)-9-methoxy-1H-benzo[f]chromene-2-carbonitrile] | 4.9 ± 0.5 µM | 5.3 ± 0.4 µM | 6.8 ± 0.5 µM | 38.1 ± 0.2 µM | 33.9 ± 0.4 µM | 260 to 262 °C |  | 
COc1ccc2ccc3c(c2c1)C(c1cc(OC)c(OC)c(OC)c1)C(C#N)=C(N)O3 (centres unmarked) [4y, 3-Amino-1–(3,4,5-trimethoxyphenyl)-9-methoxy-1H-benzo[f]chromene-2-carbonitrile] | 26.1 ± 0.1 µM | 15.4 ± 0.1 µM | 8.8 ± 0.2 µM | 34.1 ± 0.2 µM | 29.9 ± 0.4 µM | 260 to 261 °C |  | 
COc1ccc2ccc3c(c2c1)C(c1ccc(C(F)(F)F)cc1F)C(C#N)=C(N)O3 (centres unmarked) [4u] | 0.2 µM | 14.7 ± 2.3 µM | 10.6 ± 0.9 µM | 55.3 ± 0.1 µM | 60.3 ± 0.1 µM | 237 to 239 °C | 19.7 ± 0.8 µM | 
COc1ccc2ccc3c(c2c1)C(c1ccc(OC)c(OC)c1OC)C(C#N)=C(N)O3 (centres unmarked) [4x, 3-Amino-1–(2,3,4-trimethoxyphenyl)-9-methoxy-1H-benzo[f]chromene-2-carbonitrile] | 96.1 ± 0.6 µM | 36.6 ± 0.1 µM | 59.7 ± 0.3 µM |  |  | 239 to 240 °C |  | 
COc1ccc(C2C(C#N)=C(N)Oc3ccc4ccc(OC)cc4c32)c(OC)c1 (centres unmarked) [4v, 3-Amino-1–(2,4-dimethoxyphenyl)-9-methoxy-1H-benzo[f]chromene-2-carbonitrile] | 100 ± 0.2 µM | 49.9 ± 0.5 µM | 93.2 ± 0.2 µM |  |  | 218 to 220 °C |  | 
COc1ccc2ccc3c(c2c1)C(c1c(Cl)cccc1Cl)C(C#N)=C(N)O3 (centres unmarked) [4p, 3-Amino-1–(2,6-dichlorophenyl)-9-methoxy-1H-benzo[f]chromene-2-carbonitrile] | 41.5 ± 0.1 µM | 18.9 ± 0.2 µM | 25.9 ± 0.3 µM |  |  | 321 to 322 °C |  | 
COc1ccc2ccc3c(c2c1)C(c1c(F)cccc1F)C(C#N)=C(N)O3 (centres unmarked) [4l, 3-Amino-1–(2,6-difluorophenyl)-9-methoxy-1H-benzo[f]chromene-2-carbonitrile] | 15.4 ± 0.2 µM | 77.7 ± 0.3 µM | 28.5 ± 0.4 µM |  |  | 305 to 306 °C |  | 
COc1ccc2ccc3c(c2c1)C(c1cc(Br)cc(Br)c1)C(C#N)=C(N)O3 (centres unmarked) [4s, 3-Amino-1–(3,5-dibromophenyl)-9-methoxy-1H-benzo[f]chromene-2-carbonitrile] | 13.6 ± 0.2 µM | 15 ± 2.6 µM | 13.4 ± 1.1 µM |  |  | 268 to 270 °C |  | 
COc1ccc2ccc3c(c2c1)C(c1cccc(Br)c1)C(C#N)=C(N)O3 (centres unmarked) [4f, 3-Amino-1–(3-bromophenyl)-9-methoxy-1H-benzo[f]chromene-2-carbonitrile] | 69.2 ± 0.3 µM | 11.5 ± 1.1 µM | 63.6 ± 3.2 µM |  |  | 263 to 265 °C |  | 
CC[C@]1(O)C[C@@H]2CN(CCc3c([nH]c4ccccc34)[C@@](C(=O)OC)(c3cc4c(cc3OC)N(C)[C@H]3[C@@](O)(C(=O)OC)[C@H](OC(C)=O)[C@]5(CC)C=CCN6CC[C@]43[C@@H]65)C2)C1 [Vinblastine, reference compound] | 7.5 ± 0.03 µM | 3.2 ± 0.1 µM | 5.7 ± 0.1 µM |  |  |  |  | 
COc1ccc2ccc3c(c2c1)C(c1ccc(C)cc1)C(C#N)=C(N)O3 (centres unmarked) [4i, 3-Amino-1–(4-methylphenyl)-9-methoxy-1H-benzo[f]chromene-2-carbonitrile] | 7 ± 0.1 µM | 2.9 ± 0.1 µM | 8.8 ± 0.2 µM | 71.6 ± 0.3 µM | 61.7 ± 0.1 µM | 245 to 246 °C | 42.8 ± 2.4 µM | 
COc1ccc2ccc3c(c2c1)C(c1ccccc1Br)C(C#N)=C(N)O3 (centres unmarked) [4e, 3-Amino-1–(2-bromophenyl)-9-methoxy-1H-benzo[f]chromene-2-carbonitrile] | 8.3 ± 0.6 µM | 5.9 ± 0.4 µM | 4.9 ± 0.2 µM | 49.5 ± 1.1 µM | 59.1 ± 1.1 µM | 273 to 275 °C |  | 
COc1ccc2ccc3c(c2c1)C(c1cc(Cl)ccc1Cl)C(C#N)=C(N)O3 (centres unmarked) [4o, 3-Amino-1–(2,5-dichlorophenyl)-9-methoxy-1H-benzo[f]chromene-2-carbonitrile] | 3.8 ± 0.3 µM | 8.3 ± 0.2 µM | 46.6 ± 0.1 µM |  |  | 268 to 269 °C |  | 
COc1ccc2ccc3c(c2c1)C(c1ccc(F)cc1)C(C#N)=C(N)O3 (centres unmarked) [4a, 3-Amino-1–(4-fluorophenyl)-9-methoxy-1H-benzo[f]chromene-2-carbonitrile] | 16.5 ± 0.1 µM | 6.4 ± 0.1 µM | 11.3 ± 0.1 µM | 45.1 ± 0.2 µM | 56.7 ± 1.1 µM | 267 to 268 °C | 24.4 ± 1.2 µM | 
COc1ccc2ccc3c(c2c1)C(c1ccc(C(F)(F)F)cc1)C(C#N)=C(N)O3 (centres unmarked) [4j, 3-Amino-1–(4-trifluoromethylphenyl)-9-methoxy-1H-benzo[f]chromene-2-carbonitrile] | 26.8 ± 1.8 µM | 20.2 ± 1.1 µM | 5.3 ± 0.1 µM |  |  | 212 to 214 °C |  | 
COc1ccc2ccc3c(c2c1)C(c1ccc(I)cc1)C(C#N)=C(N)O3 (centres unmarked) [4h, 3-Amino-1–(4-iodophenyl)-9-methoxy-1H-benzo[f]chromene-2-carbonitrile] | 48.4 ± 0.1 µM | 27.7 ± 0.3 µM | 39.2 ± 0.2 µM |  |  | 227 to 228 °C |  | 
COc1ccc2ccc3c(c2c1)C(c1ccc(Cl)cc1Cl)C(C#N)=C(N)O3 (centres unmarked) [4n, 3-Amino-1–(2,4-dichlorophenyl)-9-methoxy-1H-benzo[f]chromene-2-carbonitrile] | 1.8 ± 0.1 µM | 1.7 ± 0.2 µM | 7.3 ± 0.2 µM | 71.7 ± 0.1 µM | 61.9 ± 0.3 µM | 261 to 262 °C | 10.9 to 15.5 µM | 15.5 ± 0.2 µM
COc1ccc2ccc3c(c2c1)C(c1ccc(Br)cc1)C(C#N)=C(N)O3 (centres unmarked) [4g, 3-Amino-1–(4-bromophenyl)-9-methoxy-1H-benzo[f]chromene-2-carbonitrile] | 5.6 ± 0.1 µM | 2.2 ± 0.1 µM | 2 ± 0.1 µM | 65.3 ± 0.1 µM | 69 ± 1.1 µM | 252 to 253 °C | 19.6 ± 1 µM | 
COc1ccc2ccc3c(c2c1)C(c1cccc(Cl)c1Cl)C(C#N)=C(N)O3 (centres unmarked) [4m, 3-Amino-1–(2,3-dichlorophenyl)-9-methoxy-1H-benzo[f]chromene-2-carbonitrile] | 9.1 ± 0.2 µM | 42 ± 0.2 µM | 11.8 ± 0.2 µM |  |  | 310 to 311 °C |  | 
COc1ccc2ccc3c(c2c1)C(c1cc(Br)cc(Br)c1OC)C(C#N)=C(N)O3 (centres unmarked) [4z, 3-Amino-1–(3,5-dibromo-2-methoxyphenyl)-9-methoxy-1H-benzo[f]chromene-2-carbonitrile] | 5.8 ± 0.04 µM | 6.8 ± 0.1 µM | 3.5 ± 0.2 µM | 33.3 ± 0.1 µM | 39.6 ± 0.4 µM | 263 to 264 °C |  | 
COc1ccc2ccc3c(c2c1)C(c1c(F)cccc1Cl)C(C#N)=C(N)O3 (centres unmarked) [4t, 3-Amino-1–(2-chloro-6-fulorophenyl)-9-methoxy-1H-benzo[f]chromene-2-carbonitrile] | 100 ± 1.3 µM | 96.5 ± 2 µM | 48.1 ± 1.3 µM |  |  | 292 to 294 °C |  | 
